Where “and” joins values, the source holds several entries; their conditions need not be identical. Equal values may be shown once. Read-outs that look alike come from different tables or passages of the source.
How the values were obtained:
Male Rats = conditions: individual rats
Protocol: • 1) Solution MOR 3 mg/ul (the same Mor. […] 1) • 2) (+) Norketamine 3 mg/ml dose 3 mg/kg inj.
• TFL—intensity 40%, idle activity 5%, cut-off 10 sec.
• TFL—Intensity 40%, idle activity 5%, cut-off 10 sec.
• TFL—Intensity 40%, idle activity 5%, cut-off 10 seconds Solutions:

[1] = C. S. T. Aun, 1999, cited from earlier work
NMDA receptor = conditions: Ebert et al., 1997; cited from earlier work

For `CN1CC[C@]23c4c5ccc(O)c4O[C@H]2[C@@H](O)C=C[C@H]3[C@H]1C5` [Morphine, morphine], the “TFL 15 min.” value (Male Rats; Day 1, male rats 5-8, MOR 3 mg/kg + SAL or (+) Norket 3 mg/kg, 15 min after injection, listed as MOR) was 3.24 s and 3.55 s, the “TFL 30 min.” value (Male Rats; Day 1, male rats 5-8, MOR 3 mg/kg + SAL or (+) Norket 3 mg/kg, 30 min after injection, listed as MOR) was 5.72 s and 6.2 s and the “TFL 60 min.” value (Male Rats; Day 1, male rats 5-8, MOR 3 mg/kg + SAL or (+) Norket 3 mg/kg, 60 min after injection, listed as MOR) was 1.93 s and 4.50 s. For the same molecule, the “TFL 120 min.” value (Male Rats; Day 1, male rats 5-8, MOR 3 mg/kg + SAL or (+) Norket 3 mg/kg, 120 min after injection, listed as MOR) was 1.61 s and 5.44 s, the “TFL 15 min.” value (Male Rats; Day 2, male rats 1-4, Mor 3 mg/kg & (−) Norketamine 3 mg/kg or saline, 15 min, cut-off 10 sec, listed as Mor) was 2.03 s and 4.89 s and the “TFL 30 min.” value (Male Rats; Day 2, male rats 1-4, Mor 3 mg/kg & (−) Norketamine 3 mg/kg or saline, 30 min, cut-off 10 sec, listed as Mor) was 2.74 s and 7.26 s. The “TFL 60 min.” value (Male Rats; Day 2, male rats 1-4, Mor 3 mg/kg & (−) Norketamine 3 mg/kg or saline, 60 min, cut-off 10 sec, listed as Mor) was 1.94 s and 6.84 s, the “TFL 120 min.” value (Male Rats; Day 2, male rats 1-4, Mor 3 mg/kg & (−) Norketamine 3 mg/kg or saline, 120 min, cut-off 10 sec, listed as Mor) was 1.48 s and 5.37 s and the “TFL 15 min.” value (Male Rats; Day 2, male rats 5-8, 3 mg/kg Mor & 3 mg/kg (+) Norketamine or saline, 15 min, cut-off 10 sec, listed as Mor) was 3.41 s and 3.48 s. The “TFL 30 min.” value (Male Rats; Day 2, male rats 5-8, 3 mg/kg Mor & 3 mg/kg (+) Norketamine or saline, 30 min, cut-off 10 sec, listed as Mor) was 4.09 s and 3.22 s, the “TFL 60 min.” value (Male Rats; Day 2, male rats 5-8, 3 mg/kg Mor & 3 mg/kg (+) Norketamine or saline, 60 min, cut-off 10 sec, listed as Mor) was 4.03 s and 3.01 s and the “TFL 120 min.” value (Male Rats; Day 2, male rats 5-8, 3 mg/kg Mor & 3 mg/kg (+) Norketamine or saline, 120 min, cut-off 10 sec, listed as Mor) was 2.94 s and 2.12 s. The “TFL 15 min.” value (Male Rats; second series, Day 1, male rats 1-4, 3 mg/kg Morphine & saline or 3 mg/kg (−) Norketamine, 15 min, cut-off 10 sec) was 2.92 s and 1.82 s, the “TFL 30 min.” value (Male Rats; second series, Day 1, male rats 1-4, 3 mg/kg Morphine & saline or 3 mg/kg (−) Norketamine, 30 min, cut-off 10 sec) was 3.64 s and 2.36 s and the “TFL 60 min.” value (Male Rats; second series, Day 1, male rats 1-4, 3 mg/kg Morphine & saline or 3 mg/kg (−) Norketamine, 60 min, cut-off 10 sec) was 3.28 s and 3.30 s. The “TFL 120 min.” value (Male Rats; second series, Day 1, male rats 1-4, 3 mg/kg Morphine & saline or 3 mg/kg (−) Norketamine, 120 min, cut-off 10 sec) was 2.74 s and 1.92 s, the “TFL 15 min.” value (Male Rats; second series, Day 1, male rats 5-8, 3 mg/kg Morphine & saline or 3 mg/kg (+) Norketamine, 15 min, cut-off 10 sec) was 2.97 s and 2.88 s and the “TFL 30 min.” value (Male Rats; second series, Day 1, male rats 5-8, 3 mg/kg Morphine & saline or 3 mg/kg (+) Norketamine, 30 min, cut-off 10 sec) was 2.75 s and 3.86 s. The “TFL 60 min.” value (Male Rats; second series, Day 1, male rats 5-8, 3 mg/kg Morphine & saline or 3 mg/kg (+) Norketamine, 60 min, cut-off 10 sec) was 3.51 s and 3.69 s, the “TFL 120 min.” value (Male Rats; second series, Day 1, male rats 5-8, 3 mg/kg Morphine & saline or 3 mg/kg (+) Norketamine, 120 min, cut-off 10 sec) was 2.70 s and 2.17 s and the “TFL 15 min.” value (Male Rats; second series, Day 2, male rats 5-8, 3 mg/kg Morphine & 3 mg/kg (+) Norketamine or saline, 15 min, cut-off 10 seconds) was 2.25 s and 1.56 s. For the same molecule, the “TFL 30 min.” value (Male Rats; second series, Day 2, male rats 5-8, 3 mg/kg Morphine & 3 mg/kg (+) Norketamine or saline, 30 min, cut-off 10 seconds) was 2.46 s and 1.97 s, the “TFL 60 min.” value (Male Rats; second series, Day 2, male rats 5-8, 3 mg/kg Morphine & 3 mg/kg (+) Norketamine or saline, 60 min, cut-off 10 seconds) was 3.83 s and 2.08 s and the “TFL 120 min.” value (Male Rats; second series, Day 2, male rats 5-8, 3 mg/kg Morphine & 3 mg/kg (+) Norketamine or saline, 120 min, cut-off 10 seconds) was 2.60 s and 2.24 s.
For `NC1(c2ccccc2Cl)CCCCC1=O` (stereo not drawn) [Norketamine, 2-(2-chlorophenyl)-2-amino-cyclohexanone], the “anesthetic and analgesic potency relative to ketamine” value ([1]; speculated) is listed as “one third that of ketamine” and the “binding to the NMDA receptor relative to S- and R-ketamine” value (NMDA receptor) is listed as “less tightly than either S- or R-ketamine”.
For `CN[C@]1(c2ccccc2Cl)CCCCC1=O` [S-ketamine], the “potency relative to R-ketamine” value [1] is listed as “twice as potent as R-ketamine”.

— patent publication US8710070B2, “Opioid-ketamine and norketamine codrug combinations for pain management” (University of Kentucky Research Foundation, priority 2008, dated 2014)
